# According to PubChem BioAssay (NCI):
#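 Where inhibition never reached the appropriate level, the endpoint shown equals the highest concentration tested. Otherwise, values were interpolated linearly from a five-concentration, 48-hour dose response in 96-well plates. At the GI50, growth is halved. Definition used: TGI = concentration required for complete inhibition of growth.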
# How the values were obtained:
# Experiment in all cases: NCI-60 cell line screen, 48 h
# [1] = system: 786-0 renal
# [2] = system: A498 renal
# [3] = system: A549 NSCLC
# [4] = system: ACHN renal
# [5] = system: BT-549 breast
# [6] = system: CAKI-1 renal
# [7] = system: CCRF-CEM leukemia
# [8] = system: DU-145 prostate
# [9] = system: EKVX NSCLC
# [10] = system: HCC-2998 colon
# [11] = system: HCT-116 colon
# [12] = system: HCT-15 colon
# [13] = system: HL-60(TB) leukemia
# [14] = system: HOP-62 NSCLC
# [15] = system: HOP-92 NSCLC
# [16] = system: HT29 colon
# [17] = system: IGROV1 ovarian
# [18] = system: K-562 leukemia
# [19] = system: KM12 colon
# [20] = system: LOX IMVI melanoma
# [21] = system: M14 melanoma
# [22] = system: MALME-3M melanoma
# [23] = system: MCF7 breast
# [24] = system: MDA-MB-231 breast
# [25] = system: MDA-MB-435
# [26] = system: MOLT-4 leukemia
# [27] = system: NCI-H23 lung
# [28] = system: NCI-H460 lung
# [29] = system: NCI-H522 lung
# [30] = system: NCI/ADR-RES ovarian
# [31] = system: OVCAR-3 ovarian
# [32] = system: OVCAR-4 ovarian
# [33] = system: OVCAR-5 ovarian
# [34] = system: OVCAR-8 ovarian
# [35] = system: PC-3 prostate
# [36] = system: RPMI-8226 leukemia
# [37] = system: RXF 393 renal
# [38] = system: SF-268 CNS
# [39] = system: SF-295 CNS
# [40] = system: SF-539 CNS
# [41] = system: SK-MEL-2 melanoma
# [42] = system: SK-MEL-5 melanoma
# [43] = system: SK-OV-3 ovarian
# [44] = system: SN12C renal
# [45] = system: SNB-75 CNS
# [46] = system: SW-620 colon
# [47] = system: T-47D breast
# [48] = system: TK-10 renal
# [49] = system: U251 CNS
# [50] = system: UACC-257 melanoma
# [51] = system: UACC-62 melanoma
# [52] = system: UO-31 renal
# [53] = system: COLO 205 colon
# [54] = system: HS 578T breast
# [55] = system: NCI-H226 lung
# [56] = system: SK-MEL-28 melanoma
# [57] = system: SNB-19 CNS
# [58] = system: SR leukemia
structure (smiles),measurement,setting,value
N#Cc1c2ccccc2c2nnc3cc(Cl)c(Cl)cc3n12,GI50,[1],> 100 µM
same,TGI,[1],> 100 µM
same,GI50,[2],56.6 µM
same,TGI,[2],> 100 µM
same,GI50,[3],47.7 µM
same,TGI,[3],> 100 µM
same,GI50,[4],19.9 µM
same,TGI,[4],52.8 µM
same,GI50,[5],60.9 µM
same,TGI,[5],> 100 µM
same,GI50,[6],77.4 µM
same,TGI,[6],> 100 µM
same,GI50,[7],85.4 µM
same,TGI,[7],> 100 µM
same,GI50,[8],32.4 µM
same,TGI,[8],> 100 µM
same,GI50,[9],48.6 µM
same,TGI,[9],> 100 µM
same,GI50,[10],23 µM
same,TGI,[10],82.1 µM
same,GI50,[11],34.2 µM
same,TGI,[11],> 100 µM
same,GI50,[12],33 µM
same,TGI,[12],> 100 µM
same,GI50,[13],22.6 µM
same,TGI,[13],70.2 µM
same,GI50,[14],31.2 µM
same,TGI,[14],> 100 µM
same,GI50,[15],42 µM
same,TGI,[15],> 100 µM
same,GI50,[16],> 100 µM
same,TGI,[16],> 100 µM
same,GI50,[17],44.5 µM
same,TGI,[17],> 100 µM
same,GI50,[18],29 µM
same,TGI,[18],89.1 µM
same,GI50,[19],> 100 µM
same,TGI,[19],> 100 µM
same,GI50,[20],59.3 µM
same,TGI,[20],> 100 µM
same,GI50,[21],> 100 µM
same,TGI,[21],> 100 µM
same,GI50,[22],> 100 µM
same,TGI,[22],> 100 µM
same,GI50,[23],27.5 µM
same,TGI,[23],90.3 µM
same,GI50,[24],24.2 µM
same,TGI,[24],74.6 µM
same,GI50,[25],> 100 µM
same,TGI,[25],> 100 µM
same,GI50,[26],27.4 µM
same,TGI,[26],> 100 µM
same,GI50,[27],75.1 µM
same,TGI,[27],> 100 µM
same,GI50,[28],54.2 µM
same,TGI,[28],> 100 µM
same,GI50,[29],39.2 µM
same,TGI,[29],> 100 µM
same,GI50,[30],31.6 µM
same,TGI,[30],97.8 µM
same,GI50,[31],33.1 µM
same,TGI,[31],95.9 µM
same,GI50,[32],40.8 µM
same,TGI,[32],> 100 µM
same,GI50,[33],> 100 µM
same,TGI,[33],> 100 µM
same,GI50,[34],40 µM
same,TGI,[34],> 100 µM
same,GI50,[35],30 µM
same,TGI,[35],73.7 µM
same,GI50,[36],29.6 µM
same,TGI,[36],> 100 µM
same,GI50,[37],30 µM
same,TGI,[37],> 100 µM
same,GI50,[38],27.7 µM
same,TGI,[38],83.3 µM
same,GI50,[39],93.7 µM
same,TGI,[39],> 100 µM
same,GI50,[40],28.5 µM
same,TGI,[40],61.8 µM
same,GI50,[41],60.7 µM
same,TGI,[41],> 100 µM
same,GI50,[42],84.2 µM
same,TGI,[42],> 100 µM
same,GI50,[43],> 100 µM
same,TGI,[43],> 100 µM
same,GI50,[44],23 µM
same,TGI,[44],61.6 µM
same,GI50,[45],71.7 µM
same,TGI,[45],> 100 µM
same,GI50,[46],> 100 µM
same,TGI,[46],> 100 µM
same,GI50,[47],> 100 µM
same,TGI,[47],> 100 µM
same,GI50,[48],> 100 µM
same,TGI,[48],> 100 µM
same,GI50,[49],50.7 µM
same,TGI,[49],> 100 µM
same,GI50,[50],34.5 µM
same,TGI,[50],> 100 µM
same,GI50,[51],62.1 µM
same,TGI,[51],> 100 µM
same,GI50,[52],23.3 µM
same,TGI,[52],65.8 µM
Cc1cc(S(N)(=O)=O)c(S/C(=N\NS(=O)(=O)c2ccc(Cl)cc2)c2ccc(Cl)cc2)cc1Cl,GI50,[1],> 100 µM
same,TGI,[1],> 100 µM
same,GI50,[3],49.1 µM
same,TGI,[3],> 100 µM
same,GI50,[4],38.6 µM
same,TGI,[4],> 100 µM
same,GI50,[5],> 100 µM
same,TGI,[5],> 100 µM
same,GI50,[6],> 100 µM
same,TGI,[6],> 100 µM
same,GI50,[7],61 µM
same,TGI,[7],> 100 µM
same,GI50,[53],85.2 µM
same,TGI,[53],> 100 µM
same,GI50,[8],> 100 µM
same,TGI,[8],> 100 µM
same,GI50,[9],> 100 µM
same,TGI,[9],> 100 µM
same,GI50,[11],> 100 µM
same,TGI,[11],> 100 µM
same,GI50,[12],> 100 µM
same,TGI,[12],> 100 µM
same,GI50,[13],40.6 µM
same,TGI,[13],> 100 µM
same,GI50,[14],> 100 µM
same,TGI,[14],> 100 µM
same,GI50,[15],> 100 µM
same,TGI,[15],> 100 µM
same,GI50,[54],79.7 µM
same,TGI,[54],> 100 µM
same,GI50,[17],> 100 µM
same,TGI,[17],> 100 µM
same,GI50,[18],45.3 µM
same,TGI,[18],> 100 µM
same,GI50,[19],70.6 µM
same,TGI,[19],> 100 µM
same,GI50,[20],> 100 µM
same,TGI,[20],> 100 µM
same,GI50,[21],> 100 µM
same,TGI,[21],> 100 µM
same,GI50,[23],> 100 µM
same,TGI,[23],> 100 µM
same,GI50,[24],> 100 µM
same,TGI,[24],> 100 µM
same,GI50,[25],> 100 µM
same,TGI,[25],> 100 µM
same,GI50,[26],8.12 µM
same,TGI,[26],> 100 µM
same,GI50,[55],92.4 µM
same,TGI,[55],> 100 µM
same,GI50,[27],44.2 µM
same,TGI,[27],> 100 µM
same,GI50,[28],> 100 µM
same,TGI,[28],> 100 µM
same,GI50,[29],> 100 µM
same,TGI,[29],> 100 µM
same,GI50,[30],> 100 µM
same,TGI,[30],> 100 µM
same,GI50,[31],> 100 µM
same,TGI,[31],> 100 µM
same,GI50,[32],> 100 µM
same,TGI,[32],> 100 µM
same,GI50,[33],> 100 µM
same,TGI,[33],> 100 µM
same,GI50,[34],> 100 µM
same,TGI,[34],> 100 µM
same,GI50,[35],56.8 µM
same,TGI,[35],> 100 µM
same,GI50,[36],22 µM
same,TGI,[36],> 100 µM
same,GI50,[37],> 100 µM
same,TGI,[37],> 100 µM
same,GI50,[38],> 100 µM
same,TGI,[38],> 100 µM
same,GI50,[39],> 100 µM
same,TGI,[39],> 100 µM
same,GI50,[40],> 100 µM
same,TGI,[40],> 100 µM
same,GI50,[41],> 100 µM
same,TGI,[41],> 100 µM
same,GI50,[56],> 100 µM
same,TGI,[56],> 100 µM
same,GI50,[42],> 100 µM
same,TGI,[42],> 100 µM
same,GI50,[43],> 100 µM
same,TGI,[43],> 100 µM
same,GI50,[44],> 100 µM
same,TGI,[44],> 100 µM
same,GI50,[57],> 100 µM
same,TGI,[57],> 100 µM
same,GI50,[58],29.1 µM
same,TGI,[58],> 100 µM
same,GI50,[46],> 100 µM
same,TGI,[46],> 100 µM
same,GI50,[48],> 100 µM
same,TGI,[48],> 100 µM
same,GI50,[49],62.8 µM
same,TGI,[49],> 100 µM
same,GI50,[50],> 100 µM
same,TGI,[50],> 100 µM
same,GI50,[51],> 100 µM
same,TGI,[51],> 100 µM
same,GI50,[52],> 100 µM
same,TGI,[52],> 100 µM
